From patent publication US12030908B2, “Antimicrobial compounds, compositions, and uses thereof” (Lakewood Amedex, Inc., priority 2017, dated 2024)

Legend:
[1] = tested on: Streptococcus pneumoniae (PRSP); experiment: MIC at pH 3.5, CLSI, Mueller-Hinton broth; format: cell-based
[2] = Body weight in the Aspergillus fumigatus lung infection model (Example 24); format: in vivo, BALB/c mice; conditions: Part A
E. coli ATCC25922 = experiment: Urinary tract infection model in rats, transurethral treatment (Example 11); format: in vivo, Sprague-Dawley rats; conditions: 60 min
Experimental: Female Sprague-Dawley rats (n=6/group) are intraurethrally infected with the predetermined inoculum size of E. coli. At the specified time following infection with (depending on the in vivo growth curve), the animals are anaesthetized (ketamine/xylazine) and treated by transurethral administration with neutral saline (group 1), saline pH 3.5 adjusted with phosphoric acid (group 2), test compound Nu-8 pH 3.5 at 103 and 207 mg/kg (groups 3 and 4, respectively). When adjusting pH, the volume of phosphoric acid added are monitored and the final concentration of the pH adjusted dose solution are subsequently determined. The goal is to have the final concentration after pH adjustment within 10% of the desired dose so the final concentration after pH adjustment are reported. Volume of administration will be 300 μL. TABLE 9 (Animal Challenge and Treatment Schedule) summarizes the study groups.
Two hours prior to each infection animals are water deprived. Each animal is infected twice with 24 hrs difference by transurethral administration of 300 μL of bacterial suspension under light ketamine and xylazine anaesthesia. Prior to infection, urine is evacuated by digital pressure, cannula is gently inserted into the bladder via urethra, and 300 μL of bacterial suspension is inserted into the bladder. […]

[3] = tested on: wild type P. aeruginosa (PAO1; K2732); experiment: Bacterial cytological profiling at pH 4, 5.5, 7 (Example 7), P. aeruginosa; format: cell-based; conditions: pH 7, 225 mg/mL
Experimental: This bacterial cytological profiling (BCP) investigation uses methods and materials described previously by Nonejuie, P., Burkart, M., Poglianoa, K., Pogiano, J. (2013). Bacterial cytological profiling rapidly identifies the cellular pathways targeted by antibacterial molecules. Proc. Natl. Acad. Sci. U.S.A. 110(40):16169-16174. doi: 10.1073/pnas.1311066110.
For viable cell counts, cells are grown to OD600≈0.4 and diluted 1:1 into buffered or unbuffered media containing various compound concentrations. Samples are then collected and serially diluted (1:10) on a 96 well plate. Five microliters from each well are spotted on LB plates, incubated at 30° C., and viable cells are counted the next day.
Samples are collected at 10, 30, 120, and 240 min of exposure for viable cell count and imaging. For imaging, E. coli and S. aureus 200 μL of treated cells per time point are stained with 0.8 μg/mL FM4-64, 1.5 μg/mL DAPI, and 0.4 μM SYTOXGreen (Molecular Probes/Invitrogen). P. aeruginosa samples are stained 0.4 μM SYTOX Green, 28 μg/mL DAPI, and 1 μg/mL FM 4-64. Cells are transferred to an agarose pad (20% LB, 1% agarose) for imaging.
For Nu-3 and Nu-8 stocks (at pH 4, 5.5 and 7), stock concentration is 500 mg/mL. For pH 4, the stocks are prepared by dissolving Nu-3 in 25 mM citrate buffer and Nu-8 in 350 mM citric acid. […]

With CCCCOP(=O)(O)OC[C@H]1O[C@@H](n2ccc(N)nc2=O)C[C@@H]1OP(=O)(O)OCCCC [Nu-8, sodium ((2R,3S,5R)-5-(4-amino-2-oxopyrimidin-1(2H)-yl)-3-((butoxyoxidophosphor-yl)oxy)tetrahydrofuran-2-yl)methyl butyl phosphate] the “Nu-8 MIC (mg/mL) at pH 3.5” value [1] was 9.38-18.75 mg/mL, the “Body Weight (g) Mean ± SD” value ([2]; 3 doses, once daily for 3 days, Day 0) was 25.17 ± 0.75 g and the “Body Weight (g) Mean ± SD” value ([2]; 3 doses, once daily for 3 days, Day 1) was 24.50 ± 0.55 g. The “Body Weight (g) Mean ± SD” value ([2]; 3 doses, once daily for 3 days, Day 2) was 23.17 ± 0.75 g, the “Body Weight (g) Mean ± SD” value ([2]; 3 doses, once daily for 3 days, Day 3 (n = 3)) was 22.33 ± 0.58 g and the “Body Weight (g) Mean ± SD” value ([2]; 5 doses, once daily for 5 days, Day 0) was 25.33 ± 0.82 g. For the same compound, the “Body Weight (g) Mean ± SD” value ([2]; 5 doses, once daily for 5 days, Day 1) was 24.33 ± 0.52 g, the “Body Weight (g) Mean ± SD” value ([2]; 5 doses, once daily for 5 days, Day 2) was 23.33 ± 0.52 g and the “Body Weight (g) Mean ± SD” value ([2]; 5 doses, once daily for 5 days, Day 3 (n = 3)) was 22.67 ± 0.58 g. The “Body Weight (g) Mean” value ([2]; 5 doses, once daily for 5 days, Day 4 (n = 2)) was 22.50 g, the “Body Weight (g) Mean” value ([2]; 5 doses, once daily for 5 days, Day 5 (n = 2)) was 22.00 g and the “Body Weight (g) Mean ± SD” value ([2]; single dose group, Day 0) was 25.50 ± 0.55 g. For the same compound, the “Body Weight (g) Mean ± SD” value ([2]; single dose group, Day 1) was 24.17 ± 0.41 g, the “change in mean body weights” value ([2]; vehicle and treatment groups) was “Decreases in mean body weights were observed” and the “mean CFU log 10 per mL of bladder tissue (tissue plus urine)” value (E. coli ATCC25922; pH 3.5, 103 mg/kg transurethral) was 5.53 Log 10 CFUs/mL bladder tissue. The “mean CFU log 10 per mL of bladder tissue (tissue plus urine)” value (E. coli ATCC25922; pH 3.5, 207 mg/kg transurethral) was 4.60 Log 10 CFUs/mL bladder tissue, the cell growth [3] was “slightly lower than that at pH 7 alone” and the cell permeability ([3]; 10 min, not persistent) was ~37%.
